From patent US8519173B2, “Plant growth regulator” (Shiseido Company, Ltd., priority 2009, dated 2013)

Tests used:
[1] = Stability on standing at room temperature; assay type: physicochemical; settings: allowed to stand at room temperature
[2] = system: morning glory (variety: Murasaki); test: Bud formation promotion activity on morning glory; assay type: in vivo; settings: sprayed at 100 μM; treatment in dark 14 h or 15 h; buds measured on day 14 under continuous light at 25° C.; N=8 plants; compared with water (FIG. 1)
Protocol: 9 g of morning glory (variety: Murasaki) seeds were treated with concentrated sulfuric acid for 20 minutes followed by allowing to stand overnight in running water. Next, the seeds were allowed to take root by allowing to stand for 24 hours on wet sea sand with the omphalos portion of the seed facing upward. The seeds that had taken root were planted to a depth of about 1.5 cm to 2.0 cm in sea sand and cultured under continuous light (for about 5 days).
All of the morning glory plants that foliated as a result of this culturing were transferred to a culture broth (containing KNO3 (250 mg), NH4NO3 (250 mg), KH2PO4 (250 mg), MgSO4.7H2O (250 mg), MnSO4.4H2O (1 mg), Fe-citrate-n-hydrate (6 mg), H3BO3 (2 mg), CuSO4.5H2O (0.1 mg), ZeSO4.7H2O (0.2 mg), Na2MoO4.2H2O (0.2 mg) and Ca(H2PO4)2.2H2O (250 mg) in 1000 mL of distilled water).
0.10 μM and 100 μM aqueous solutions of the present ketol fatty acid derivative obtained in the aforementioned Example 1 were sprayed onto this culture system and subjected to treatment in dark for 14 hours or 15 hours. Following this treatment in dark, water or the present ketol fatty acid derivative was sprayed again followed by growing the plants under continuous light for 14 days at 25° C. and measuring the buds that formed on day 14. […]

Structure (SMILES)	stability (loss of activity) [1]	increase in number of buds that formed [2]
CC/C=C\C/C=C\CC(=O)C(O)CCCCCCCC(=O)O (stereo not drawn) [α-ketol unsaturated fatty acid]	losing activity in a few days	
CC/C=C\CC1CC1CC(=O)C(O)CCCCCCCC(=O)O (centres unmarked)		more than 200%
